Laboratory results reported in patent US20180279622A1, “1-AMINO-1-CYCLOPROPANECARBOXYLIC ACID FORMULATIONS” (Valent BioSciences LLC, priority 2017, published 2018).
Where two headings read alike, the source gives them in different places. Each block holds one molecule with its values, some of them ahead of it.

Legend:
[1] = ACC precipitation and crystallization tests; assay type: physicochemical
[2] = Color change inhibition (Gardner Color Scale); assay type: physicochemical; settings: for Color (Gardner Scale): 54° C. for two weeks
Method: Specifically, the color changed from clear or a 1 on the Gardner Scale to a yellow color of 4-5 on the Gardener Scale. See ASTM D1544-04(2010), Standard Test Method for Color of Transparent Liquids (Gardner Color Scale), ASTM International, West Conshohocken, Pa., 2010, www.astm.org for explanation of the Gardner scale. To overcome this problem several methods were tested including lowering the pH to 4.0, packaging under nitrogen gas blanket, adding specific salts, chelating agents, antioxidants or preservatives.

[3] = ACC precipitation and crystallization tests; assay type: physicochemical; remark: listed apart in the source
Method: To overcome this problem, salts were added individually to 10% w/w ACC aqueous solutions. These solutions were stored at room temperature and analyzed for precipitate formation.

cotton cotyledons = experiment: Cotton cotyledon bioefficacy assay (headspace ethylene evolution); assay type: in vivo
Method: The solutions were amended with 0.05% (v/v) of a non-ionic surfactant and spray applied to the adaxial surface of 10-day old cotton cotyledons using a track sprayer. In addition to ACC-containing solutions, appropriate controls were tested. Two days (48 hours) after spray application, the cotyledons from each plant were removed, weighed and incubated in sealed glass vials for 4 to 7 hours. Headspace ethylene evolution by the cotyledons was measured by gas chromatography using standard methods. The assay from Example 5, above, was repeated with a formulation containing 0.2% w/w EDTA.

Gala apple trees = experiment: Apple thinning; assay type: in vivo; settings: foliar spray at 18 to 20 mm mean fruit diameter
Method: The formula from Example 8, above, was diluted to prepare 200 and 400 ppm ACC solutions. These solutions were applied as a foliar spray to Gala apple trees grown at three separate locations when the mean fruit diameter was from 18 to 20 millimeters. […] Thinning activity is expressed as the number of fruit set per 100 flower clusters after the completion of natural fruit drop.

[4] = salt added to 10% w/w ACC aqueous solution, 5° C. overnight
[5] = additive 0.2 % w/w in 10% ACC, 10% calcium chloride, Kathon CG/ICP formulation
[6] = salt added to 10% w/w ACC aqueous solution, stored at room temperature

Structure (SMILES): O=[N+]([O-])[O-].O=[N+]([O-])[O-].[Ca+2] [Ca(NO3)2]
- Precipitation (5° C.) [1, 4]: YES

Structure (SMILES): O=[N+]([O-])[O-].O=[N+]([O-])[O-].[Mg+2] [Mg(NO3)2]
- Precipitation (5° C.) [1, 4]: YES

Structure (SMILES): CC(=O)[O-].[Na+] [Sodium acetate]
- Color (Gardner Scale) [2, 5]: 4-5

- Precipitation (5° C.) [1, 4]: YES
Structure (SMILES): [Cl-].[Cl-].[Mg+2] [MgCl2]

Structure (SMILES): N.O=[N+]([O-])O [NH4NO3]
- Precipitation (room temperature) [3]: YES
- Precipitation (5° C.) [1]: YES

- Precipitation (room temperature) [3, 6]: YES
- Precipitation (5° C.) [1, 4]: YES
Structure (SMILES): O=S(=O)([O-])[O-].O=S(=O)([O-])[O-].O=S(=O)([O-])[O-].[Al+3].[Al+3] [Al2(SO4)3]

- Precipitation (room temperature) [3, 6]: YES
- Precipitation (5° C.) [1, 4]: YES
Structure (SMILES): O=S(=O)([O-])[O-].[Ca+2] [CaSO4]

Structure (SMILES): NC(N)=O [Urea]
- Color (Gardner Scale) [2, 5]: 5-6

- Gardner scale score ([2]; EDTA at 0.1% or 0.2% w/w, 2 weeks at 54° C.): ≤ 2
- Gardner scale score ([2]; EDTA at 0.1% or 0.2% w/w, 2 weeks plus 6 additional weeks at 54° C.): 1-2
- Color maintenance versus pH ([2]; EDTA at 0.1% or 0.2% w/w, pH 4.0): best results
- Time clear color maintained ([2]; EDTA at 0.1% or 0.2% w/w, pH 5.2, 54° C.): at least 4 weeks
- Color (Gardner Scale) ([2]; additive 0.1 % w/w): 1-2
- Color (Gardner Scale) ([2]; additive 0.5 % w/w): 1-2
Structure (SMILES): O=C(O)CN(CCN(CC(=O)O)CC(=O)O)CC(=O)O [EDTA, ethylenediaminetetraacetic acid]

Structure (SMILES): O=[N+]([O-])[O-].[K+] [KNO3]
- Precipitation (room temperature) [3, 6]: YES
- Precipitation (5° C.) [1, 4]: YES

Structure (SMILES): O=C([O-])CC(O)(CC(=O)[O-])C(=O)[O-].[Fe+3] [Iron(III) citrate hydrate]
- Precipitation (room temperature) [3, 6]: YES
- Precipitation (5° C.) [1, 4]: YES

- Precipitation (room temperature) [3, 6]: YES
- Precipitation (5° C.) [1, 4]: YES
Structure (SMILES): CC(O)C(=O)[O-].CC(O)C(=O)[O-].O.O.O.O.O.[Ca+2] (stereo not drawn) [(CH3CH(OH)COO)2Ca•5H2O]

- Precipitation (room temperature) [3, 6]: YES
- Precipitation (5° C.) [1, 4]: YES
Structure (SMILES): [Cl-].[K+] [KCl]

- Color (Gardner Scale) [2, 5]: >18
Structure (SMILES): O=C1O[C@H]([C@@H](O)CO)C(O)=C1O [Ascorbic acid]

Structure (SMILES): [Ca+2].[Cl-].[Cl-] [CaCl2, calcium chloride]
- Ethylene (cotton cotyledons; CaCl2 550 ppm, molar ratio ACC:CaCl2 0:1, 48 hours after spray): 1.49 nL/gFW/hr

Structure (SMILES): O=C([O-])CC(O)(CC(=O)[O-])C(=O)[O-].[Na+].[Na+].[Na+] [Sodium citrate]
- Color (Gardner Scale) [2, 5]: 4-5

Structure (SMILES): Cl [2N hydrochloric acid, hydrochloric acid]
- Color (Gardner Scale) ([2]; additive 0.6-0.9 % w/w): 3-4

Structure (SMILES): O=C(O)CC(O)(CC(=O)O)C(=O)O [Citric acid]
- Color (Gardner Scale) [2, 5]: 4-5

Structure (SMILES): [Ba+2].[Cl-].[Cl-] [BaCl2]
- Precipitation (5° C.) [1, 4]: YES

- Precipitation ([3]; 10% w/w ACC free acid in water, no salt, room temperature and/or 5° C.): precipitate
Structure (SMILES): NC1(C(=O)O)CC1 [ACC, 1-amino-1-cyclopropanecarboxylic acid]
- Thinning Activity (Gala apple trees; Geneva, NY, 200 ppm ACC): 47 fruit set per 100 flower clusters
- Thinning Activity (Gala apple trees; Geneva, NY, 400 ppm ACC): 37 fruit set per 100 flower clusters
- Thinning Activity (Gala apple trees; Monitor, WA, 200 ppm ACC): 32 fruit set per 100 flower clusters
- Thinning Activity (Gala apple trees; Monitor, WA, 400 ppm ACC): 10 fruit set per 100 flower clusters
- Thinning Activity (Gala apple trees; Parkdale, OR, 200 ppm ACC): 267 fruit set per 100 flower clusters
- Thinning Activity (Gala apple trees; Parkdale, OR, 400 ppm ACC): 194 fruit set per 100 flower clusters
- Ethylene (cotton cotyledons; ACC 500 ppm, molar ratio 1:0, 48 hours after spray): 39.80 nL/gFW/hr
- Ethylene (cotton cotyledons; Example 6, ACC 500 ppm): 27.6 nL/g FW/hr

- Color (Gardner Scale) [2, 5]: 4-5
Structure (SMILES): O=C(O)/C=C/C(=O)O [Fumaric acid]

Structure (SMILES): O=[N+]([O-])[O-].[Ag+] [AgNO3]
- Precipitation (room temperature) [3, 6]: YES
- Precipitation (5° C.) [1, 4]: YES

Structure (SMILES): Cl.N [NH4Cl]
- Precipitation (room temperature) [3, 6]: YES
- Precipitation (5° C.) [1, 4]: YES
